Values quoted from earlier work as cited in patent US20120269871A1, “SOLID STATE FORMS OF RASAGILINE SALTS” (ACTAVIS GROUP PTC EHF, priority 2009, published 2012).

## C#CCN[C@@H]1CCc2ccccc21.CS(=O)(=O)O [Rasagiline mesylate]
solvent: ethanol
  solubility in ethanol: freely soluble
solvent: isopropanol
  solubility in isopropanol: sparingly soluble
solvent: water
  solubility in water: freely soluble
